Results on one compound are retold here after US11576884B2, “Amino acid compositions and uses thereof” (University of Florida Research Foundation, Incorporated, priority 2016, dated 2023).

The assay deals with Lgr5. In words: Western blot for Lgr5 protein. It is filed as in vivo, NIH Swiss mice. The following applies: individual amino acid by gastric gavage (300 ul OD) for 6 days; 0 Gy and 5 Gy irradiated mice. The protocol:
For FIGS. 9-13, the data is from Male NIH Swiss mice (8 weeks) treated with individual amino acids (FIG. 9 (valine); FIG. 10 (tryptophan); FIG. 11 (serine); FIG. 12 (tyrosine); FIG. 13 (threonine)), as by gastric savage (300 ul OD) for a period of 6 days. Animals were sacrificed on day 6 by CO2 euthanasia and tissues collected for resolving the protein by western blot analysis. Lgr5 (100 KD) was used as the marker for crypt stem cell proliferation. These experiments are repeated at least 4 times (data shown) from 4 different mice.
Control groups were given normal saline. […] Mice fasted for 8 hours prior to gavage.
Signals were detected with Odyssey CLX from LI-COR.

Turning to `CC(C)[C@H](N)C(=O)O` [valine], the Lgr5 protein levels result was “increases”.
